# According to patent US20110028448A1, “PYRIDINE COMPOUNDS” (priority 2008, published 2011):
# Tested on: circulating lymphocytes
# Assay: Assessment of in vivo efficacy: circulating lymphocytes after oral administration
# Parameters: species or system rat
# Details: 6 h after oral administration of 10 mg/kg, normotensive male Wistar rats, compared to vehicle-treated group
# Protocol: Assessment of In Vivo Efficacy
# The efficacy of the compounds of Formula (I) is assessed by measuring the circulating lymphocytes after oral administration of 3 to 30 mg/kg of a compound of Formula (I) to normotensive male Wistar rats. The animals are housed in climate-controlled conditions with a 12 h-light/dark cycle, and have free access to normal rat chow and drinking water. Blood is collected before and 3, 6 and 24 h after drug administration. Full blood is subjected to hematology using Advia Hematology system (Bayer Diagnostics, Zürich, Switzerland).
# All data are presented as mean±SEM. Statistical analyses are performed by analysis of variance (ANOVA) using Statistica (StatSoft) and the Student-Newman-Keuls procedure for multiple comparisons. The null hypothesis is rejected when p<0.05.
row,SMILES,Lymphocyte counts [%]
1,"CCc1cc(-c2noc(-c3cnc(N(CC)CC)c(C)c3)n2)cc(C)c1OC[C@@H](O)CNC(=O)CO [Example 8, N-((S)-3-{-4-[5-(6-Diethylamino-5-methyl-pyridin-3-yl)-[1,2,4]oxadiazol-3-yl]-2-ethyl-6-methyl-phenoxy}-2-hydroxy-propyl)-2-hydroxy-acetamide]",−66
2,"CCc1cc(-c2nc(-c3cc(C)c(OC[C@H](O)CNC(=O)CO)c(CC)c3)no2)cnc1N(CC)CC [Example 27, N-((R)-3-{4-[5-(6-Diethylamino-5-ethyl-pyridin-3-yl)-[1,2,4]oxadiazol-3-yl]-2-ethyl-6-methyl-phenoxy}-2-hydroxy-propyl)-2-hydroxy-acetamide]",−55
3,"CCc1cc(-c2nc(-c3cc(C)c(OC[C@@H](O)CNC(=O)CO)c(CC)c3)no2)cnc1N(CC)CC [Example 28, N-((S)-3-{4-[5-(6-Diethylamino-5-ethyl-pyridin-3-yl)-[1,2,4]oxadiazol-3-yl]-2-ethyl-6-methyl-phenoxy}-2-hydroxy-propyl)-2-hydroxy-acetamide]",−56
4,"CCc1cc(-c2nc(-c3cc(C)c(OC[C@@H](O)CNC(=O)CO)c(CC)c3)no2)cnc1N1CCCC1 [Example 54, N-((S)-3-{2-Ethyl-4-[5-(5-ethyl-6-pyrrolidin-1-yl-pyridin-3-yl)-[1,2,4]oxadiazol-3-yl]-6-methyl-phenoxy}-2-hydroxy-propyl)-2-hydroxy-acetamide]",−57

# Biological target: recombinant human S1P1 receptor (Homo sapiens, UniProt P21453)
# Assay: GTPγS assay to determine EC50 values
# Assay type: biochemical
# Details: not given
# Protocol: GTPγS Assay to Determine EC50 Values
# The pH is 7.4. Test compounds are dissolved and diluted in 100% DMSO and pre-incubated at room temperature for 30 min in 150 μl of the above assay buffer, in the absence of ^35S-GTPγS. After addition of 50 μl of ^35S-GTPγS, the assay is incubated for 1 h at rt. […] Membrane-bound ^35S-GTPγS is measured with a TopCount from Packard Biosciences.
# Specific binding is determined by subtracting non-specific binding from maximal binding. Maximal binding is the amount of cpm bound to the Multiscreen plate in the presence of 10 μM of S1P. Non-specific binding is the amount of binding in the absence of an agonist in the assay.
# Chain of recombinant human S1P1 receptor (P21453 whole entry): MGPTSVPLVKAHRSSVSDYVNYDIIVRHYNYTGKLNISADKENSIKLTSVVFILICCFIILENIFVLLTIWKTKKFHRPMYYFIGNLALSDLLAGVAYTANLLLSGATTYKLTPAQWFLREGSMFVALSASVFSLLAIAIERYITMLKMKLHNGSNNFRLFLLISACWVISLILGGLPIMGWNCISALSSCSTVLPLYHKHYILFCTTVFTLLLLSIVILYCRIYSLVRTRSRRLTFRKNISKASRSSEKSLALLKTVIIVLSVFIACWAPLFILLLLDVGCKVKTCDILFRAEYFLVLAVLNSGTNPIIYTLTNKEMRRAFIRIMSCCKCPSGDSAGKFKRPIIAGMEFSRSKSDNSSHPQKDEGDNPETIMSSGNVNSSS
row,SMILES,EC50 [nM]
1,"CCc1cc(-c2nc(-c3cc(C)c(CCC(=O)NCCO)c(CC)c3)no2)cnc1N(C)C(C)C [Example 46, 3-(2-Ethyl-4-{5-[5-ethyl-6-(isopropyl-methyl-amino)-pyridin-3-yl]-[1,2,4]oxadiazol-3-yl}-6-methyl-phenyl)-N-(2-hydroxy-ethyl)-propionamide]",5

# Same assay, conditions: 35S-GTPγS binding, membrane preparations of CHO cells expressing recombinant human S1P1 receptor; read-out: EC50
row,SMILES,EC50 [nM]
1,"CCc1cc(-c2noc(-c3cnc(N(C)CC)c(C)c3)n2)cc(C)c1OC[C@H](O)CNC(=O)CO [Example 6, N-[(R)-3-(2-Ethyl-4-{5-[6-(ethyl-methyl-amino)-5-methyl-pyridin-3-yl]-[1,2,4]oxadiazol-3-yl}-6-methyl-phenoxy)-2-hydroxy-propyl]-2-hydroxy-acetamide]",3
2,"CCc1cc(-c2noc(-c3cnc(N(C)C(C)C)c(C)c3)n2)cc(C)c1OC[C@@H](O)CNC(=O)CO [Example 15, N-[(S)-3-(2-Ethyl-4-{5-[6-(isopropyl-methyl-amino)-5-methyl-pyridin-3-yl]-[1,2,4]oxadiazol-3-yl}-6-methyl-phenoxy)-2-hydroxy-propyl]-2-hydroxy-acetamide]",20
3,"CCc1cc(-c2nc(-c3cc(C)c(OC[C@@H](O)CO)c(CC)c3)no2)cnc1N(CC)CC [Example 24, (S)-3-{4-[5-(6-Diethylamino-5-ethyl-pyridin-3-yl)-[1,2,4]oxadiazol-3-yl]-2-ethyl-6-methyl-phenoxy}-propane-1,2-diol]",12
4,"CCc1cc(-c2nc(-c3cc(C)c(OC[C@@H](O)CO)c(CC)c3)no2)cnc1N(C)C(C)C [Example 31, (S)-3-(2-Ethyl-4-{5-[5-ethyl-6-(isopropyl-methyl-amino)-pyridin-3-yl]-[1,2,4]oxadiazol-3-yl}-6-methyl-phenoxy)-propane-1,2-diol]",17
5,"CCc1cc(-c2nc(-c3cc(C)c(OC[C@H](O)CNC(=O)CO)c(CC)c3)no2)cnc1N(C)C(C)C [Example 34, N-[(R)-3-(2-Ethyl-4-{5-[5-ethyl-6-(isopropyl-methyl-amino)-pyridin-3-yl]-[1,2,4]oxadiazol-3-yl}-6-methyl-phenoxy)-2-hydroxy-propyl]-2-hydroxy-acetamide]",3
6,"CCc1cc(-c2nc(-c3cc(C)c(CCC(=O)NCC(=O)O)c(CC)c3)no2)cnc1N(CC)CC [Example 44, (3-{4-[5-(6-Diethylamino-5-ethyl-pyridin-3-yl)-[1,2,4]oxadiazol-3-yl]-2-ethyl-6-methyl-phenyl}-propionylamino)-acetic acid]",4
7,"CCN(CC)c1ncc(-c2nc(-c3cc(C)c(OC[C@@H](O)CNC(=O)CO)c(C)c3)no2)cc1C [Example 55, N-((S)-3-{4-[5-(6-Diethylamino-5-methyl-pyridin-3-yl)-[1,2,4]oxadiazol-3-yl]-2,6-dimethyl-phenoxy}-2-hydroxy-propyl)-2-hydroxy-acetamide]",0.9
8,"CCN(CC)c1ncc(-c2nc(-c3cc(C)c(OC[C@@H](O)CNC(=O)CO)c(Cl)c3)no2)cc1C [Example 56, N-((S)-3-{2-Chloro-4-[5-(6-diethylamino-5-methyl-pyridin-3-yl)-[1,2,4]oxadiazol-3-yl]-6-methyl-phenoxy}-2-hydroxy-propyl)-2-hydroxy-acetamide]",1.3
9,"CCN(CC)c1ncc(-c2nc(-c3ccc(OC[C@@H](O)CNC(=O)CO)cc3C)no2)cc1C [Example 58, N-((S)-3-{4-[5-(6-Diethylamino-5-methyl-pyridin-3-yl)-[1,2,4]oxadiazol-3-yl]-3-methyl-phenoxy}-2-hydroxy-propyl)-2-hydroxy-acetamide]",14
10,"CCN(CC)c1ncc(-c2nc(-c3cc(C)c(OC[C@@H](O)CO)c(Cl)c3)no2)cc1C [Example 63, (S)-3-{2-Chloro-4-[5-(6-diethylamino-5-methyl-pyridin-3-yl)-[1,2,4]oxadiazol-3-yl]-6-methyl-phenoxy}-propane-1,2-diol]",5.2
11,"CCN(CC)c1ncc(-c2nc(-c3cc(Cl)c(OC[C@@H](O)CO)c(OC)c3)no2)cc1C [Example 64, (S)-3-{2-Chloro-4-[5-(6-diethylamino-5-methyl-pyridin-3-yl)-[1,2,4]oxadiazol-3-yl]-6-methoxy-phenoxy}-propane-1,2-diol]",8.9
12,"CCc1cc(-c2nnc(-c3cnc(N(CC)CC)c(C)c3)o2)cc(C)c1OC[C@@H](O)CNC(=O)CO [Example 68, N-((2S)-3-{4-[5-(6-Diethylamino-5-methyl-pyridin-3-yl)-[1,3,4]oxadiazol-2-yl]-2-ethyl-6-methyl-phenoxy}-2-hydroxy-propyl)-2-hydroxy-acetamide]",21.2

# Same assay, conditions: 35S-GTPγS binding, membranes of CHO cells expressing human S1P1; read-out: EC50
row,SMILES,EC50 [nM]
1,CCc1cc(-c2noc(-c3cnc(N4CCCC4)c(C)c3)n2)cc(C)c1OC[C@H](O)CN [Example 18],> 10000
2,CCc1cc(-c2noc(-c3cnc(N4CCCC4)c(C)c3)n2)cc(C)c1OC[C@@H](O)CN [Example 19],> 10000
